Assay results from US9453026B2, “ACC inhibitors and uses thereof” (Gilead Apollo, Inc., priority 2011, dated 2016).

Biological target: ACC2 (Homo sapiens, UniProt O00763)
Assay: In vitro ACC2 inhibition assay (ADP-Glo)
Assay type: biochemical
Details: read-out: ACC2
Protocol: An exemplary procedure for the in vitro ACC inhibition assay, which can be used to determine the inhibitory action of compounds of the invention toward either ACC1 or ACC2, follows. The ADP-Glo™ Kinase Assay kit from Promega was used. The ADP-Glo™ Kinase Assay is a luminescent ADP detection assay to measure enzymatic activity by quantifying the amount of ADP produced during an enzyme reaction. The assay is performed in two steps; first, after the enzyme reaction, an equal volume of ADP-Glo™ Reagent is added to terminate the reaction and deplete the remaining ATP. Second, the Kinase Detection Reagent is added to simultaneously convert ADP to ATP and allow the newly synthesized ATP to be measured using a luciferase/luciferin reaction. Luminescence can be correlated to ADP concentrations by using an ATP-to-ADP conversion curve. The detailed procedure is as follows. 50 μL of the compound being tested (600 uM in DMSO) was added to a 384-well dilution plate. The compound was diluted 1:3 in succession in DMSO for each row for 11 wells. 0.5 μL ACC2 working solution was added to 384-well white Optiplate assay plate. 0.5 μL diluted compound solution in each column from step 2 to assay plate, each row containing 2 replicates. […] The plates were incubated at room temperature for 15 minutes. 5 μL substrate working solution was added to each well to initiate reaction. […] Plates were incubated at room temperature for 60 minutes. 10 μL ADP glo reagent was added. Plates were incubated at room temperature for 40 minutes. 20 μL kinase detection reagent was added.
Data for each concentration, as well as the positive and negative controls were averaged, and the standard deviation calculated. Percent inhibition was calculated by the formula: 100× (average negative control−compound)/(average negative control−average positive control). The IC50 for each compound was calculated by fitting the data with a non-linear regression equation: Y=Bottom+(Top-Bottom)/(1+10^((Log IC50−X)*HillSlope)), where X is the log of compound concentration and Y is percent inhibition.
The compound numbers correspond to the compound numbers in Table 1.

Sequence of ACC2 (O00763 whole entry, species assumed): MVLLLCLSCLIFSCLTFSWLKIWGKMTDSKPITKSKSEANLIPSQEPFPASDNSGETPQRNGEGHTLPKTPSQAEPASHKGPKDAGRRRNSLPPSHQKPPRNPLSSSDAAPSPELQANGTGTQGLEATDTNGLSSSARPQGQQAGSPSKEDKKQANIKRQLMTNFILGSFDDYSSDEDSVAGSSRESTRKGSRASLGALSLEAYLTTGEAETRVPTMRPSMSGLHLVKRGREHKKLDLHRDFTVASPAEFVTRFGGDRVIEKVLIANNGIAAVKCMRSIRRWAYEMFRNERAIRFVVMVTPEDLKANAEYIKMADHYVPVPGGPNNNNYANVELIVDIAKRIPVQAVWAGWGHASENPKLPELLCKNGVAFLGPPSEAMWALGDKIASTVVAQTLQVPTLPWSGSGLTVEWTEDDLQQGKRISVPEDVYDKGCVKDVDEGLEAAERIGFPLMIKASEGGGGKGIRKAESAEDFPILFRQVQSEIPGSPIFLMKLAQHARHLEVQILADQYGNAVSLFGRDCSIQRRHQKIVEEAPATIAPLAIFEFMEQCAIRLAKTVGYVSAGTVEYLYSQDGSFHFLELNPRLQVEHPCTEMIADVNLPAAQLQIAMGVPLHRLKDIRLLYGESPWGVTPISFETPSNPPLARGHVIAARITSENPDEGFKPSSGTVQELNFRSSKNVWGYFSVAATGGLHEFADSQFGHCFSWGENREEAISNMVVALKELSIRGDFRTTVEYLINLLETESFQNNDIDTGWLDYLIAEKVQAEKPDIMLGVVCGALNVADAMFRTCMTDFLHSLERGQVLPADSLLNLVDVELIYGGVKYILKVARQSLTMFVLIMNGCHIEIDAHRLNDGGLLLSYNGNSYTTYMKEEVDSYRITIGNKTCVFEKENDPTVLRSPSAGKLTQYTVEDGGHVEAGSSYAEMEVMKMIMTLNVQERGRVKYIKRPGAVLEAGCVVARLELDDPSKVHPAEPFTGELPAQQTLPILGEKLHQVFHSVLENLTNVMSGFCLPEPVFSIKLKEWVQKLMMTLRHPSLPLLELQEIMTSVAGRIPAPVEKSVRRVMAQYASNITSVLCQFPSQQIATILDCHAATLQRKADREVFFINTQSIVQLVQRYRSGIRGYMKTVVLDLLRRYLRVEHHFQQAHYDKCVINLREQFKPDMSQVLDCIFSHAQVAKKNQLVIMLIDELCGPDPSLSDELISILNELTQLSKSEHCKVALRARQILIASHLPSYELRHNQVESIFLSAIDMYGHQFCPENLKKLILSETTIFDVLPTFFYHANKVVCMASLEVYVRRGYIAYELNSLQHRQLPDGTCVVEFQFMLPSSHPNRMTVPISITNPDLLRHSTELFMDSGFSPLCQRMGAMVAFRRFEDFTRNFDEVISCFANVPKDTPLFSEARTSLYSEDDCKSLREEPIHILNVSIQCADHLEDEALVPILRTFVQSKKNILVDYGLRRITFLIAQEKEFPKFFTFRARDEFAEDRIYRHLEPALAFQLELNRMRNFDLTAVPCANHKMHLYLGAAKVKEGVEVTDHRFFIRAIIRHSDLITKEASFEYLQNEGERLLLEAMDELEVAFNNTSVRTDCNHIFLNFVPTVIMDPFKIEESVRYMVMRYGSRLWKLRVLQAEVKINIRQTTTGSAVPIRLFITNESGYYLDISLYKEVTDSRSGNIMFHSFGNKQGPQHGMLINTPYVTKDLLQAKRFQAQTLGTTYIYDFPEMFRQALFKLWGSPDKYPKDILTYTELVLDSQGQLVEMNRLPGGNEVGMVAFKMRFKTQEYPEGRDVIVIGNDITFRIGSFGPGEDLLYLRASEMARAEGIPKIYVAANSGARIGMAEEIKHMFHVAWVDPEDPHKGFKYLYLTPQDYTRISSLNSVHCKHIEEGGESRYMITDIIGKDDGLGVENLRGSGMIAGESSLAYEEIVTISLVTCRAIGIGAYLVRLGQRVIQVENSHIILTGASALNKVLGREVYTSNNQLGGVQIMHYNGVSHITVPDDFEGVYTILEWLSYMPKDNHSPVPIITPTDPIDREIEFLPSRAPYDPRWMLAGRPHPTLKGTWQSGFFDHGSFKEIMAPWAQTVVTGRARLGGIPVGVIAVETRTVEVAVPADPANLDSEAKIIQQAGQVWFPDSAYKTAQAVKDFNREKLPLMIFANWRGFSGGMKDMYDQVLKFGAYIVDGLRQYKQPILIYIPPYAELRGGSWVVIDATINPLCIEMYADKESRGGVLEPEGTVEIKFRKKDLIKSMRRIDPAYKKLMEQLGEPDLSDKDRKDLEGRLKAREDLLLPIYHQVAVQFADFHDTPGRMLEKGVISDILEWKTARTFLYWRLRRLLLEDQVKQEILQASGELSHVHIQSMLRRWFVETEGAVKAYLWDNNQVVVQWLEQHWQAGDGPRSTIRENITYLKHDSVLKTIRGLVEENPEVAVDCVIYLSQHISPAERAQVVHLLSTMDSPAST

| IC50 | SMILES |
| --- | --- |
| < 5 µM | CCOC(=O)c1sc2c(c1C)c(=O)n(CC(=O)O)c(=O)n2CC(OC)c1ccccc1 (centres unmarked) [I-67, 2-[6-(ethoxycarbonyl)-1-(2-methoxy-2-phenylethyl)-5-methyl-2,4-dioxo-1H,2H,3H,4H-thieno[2,3-d]pyrimidin-3-yl]acetic acid] |
| < 1 µM | Cc1c(-c2ncco2)sc2c1c(=O)n(C(C)(C)C(=O)O)c(=O)n2C[C@H](O[C@H]1CCC[C@H](O)C1)c1ccccc1 [I-172, 2-(1-((R)-2-(((1S,3S)-3-hydroxycyclohexyl)oxy)-2-phenylethyl)-5-methyl-6-(oxazol-2-yl)-2,4-dioxo-1,2-dihydrothieno[2,3-d]pyrimidin-3(4H)-yl)-2-methylpropanoic acid] |
| < 1 µM | Cc1c(-c2ncco2)sc2c1c(=O)n(C(C)(C)C(=O)O)c(=O)n2C[C@H](OC[C@@H](C)CO)c1ccccc1 [I-171, 2-(1-((R)-2-((S)-3-hydroxy-2-methylpropoxy)-2-phenylethyl)-5-methyl-6-(oxazol-2-yl)-2,4-dioxo-1,2-dihydrothieno[2,3-d]pyrimidin-3(4H)-yl)-2-methylpropanoic acid] |
| 5 to 20 µM | CCOC(=O)c1sc2c(c1C)c(=O)n(C(C)(C)C(=O)O)c(=O)n2C[C@@H](OCC(C)C)c1ccccc1 [I-124, 2-[6-(ethoxycarbonyl)-5-methyl-1-[(2S)-2-(2-methylpropoxy)-2-phenylethyl]-2,4-dioxo-1H,2H,3H,4H-thieno[2,3-d]pyrimidin-3-yl]-2-methylpropanoic acid] |
| > 50 µM | CCOC(=O)c1sc2c(c1C)c(=O)n(CCO)c(=O)n2CC [I-11, ethyl 1-ethyl-3-(2-hydroxyethyl)-5-methyl-2,4-dioxo-1H,2H,3H,4H-thieno[2,3-d]pyrimidine-6-carboxylate] |
| < 5 µM | Cc1c(-c2ncco2)sc2c1c(=O)n(C(C)(C)C(=O)O)c(=O)n2CCC1CCCCC1 [I-176, 2-[1-(2-cyclohexylethyl)-5-methyl-6-(1,3-oxazol-2-yl)-2,4-dioxo-1H,2H,3H,4H-thieno[2,3-d]pyrimidin-3-yl]-2-methylpropanoic acid] |
| < 1 µM | CCOC(=O)c1sc2c(c1C)c(=O)n(CC(=O)O)c(=O)n2CC(OC)c1ccccc1 (stereo in doubt) [I-105, 2-[6-(ethoxycarbonyl)-1-[(2S)-2-methoxy-2-phenylethyl]-5-methyl-2,4-dioxo-1H,2H,3H,4H-thieno[2,3-d]pyrimidin-3-yl]acetic acid] |
| < 5 µM | CCOC(=O)c1sc2c(c1C(F)(F)F)c(=O)n(CC(=O)O)c(=O)n2CCc1ccccc1 [I-94, 2-[6-(ethoxycarbonyl)-2,4-dioxo-1-(2-phenylethyl)-5-(trifluoromethyl)-1H,2H,3H,4H-thieno[2,3-d]pyrimidin-3-yl]acetic acid] |
| < 0.1 µM | COCc1ccccc1[C@H](Cn1c(=O)n(C(C)(C)C(=O)O)c(=O)c2c(C)c(-c3ncco3)sc21)OC1CCOCC1 [I-293, 2-[1-[(2R)-2-[2-(methoxymethyl)phenyl]-2-(oxan-4-yloxy)ethyl]-5-methyl-6-(1,3-oxazol-2-yl)-2,4-dioxo-1H,2H,3H,4H-thieno[2,3-d]pyrimidin-3-yl]-2-methylpropanoic acid] |
| 5 to 20 µM | Cc1c(-c2ncco2)sc2c1c(=O)n(C(C)(C)C(=O)O)c(=O)n2C[C@@H](Oc1ccccc1)c1ccccc1 [I-144, 2-methyl-2-[5-methyl-6-(1,3-oxazol-2-yl)-2,4-dioxo-1-[(2S)-2-phenoxy-2-phenylethyl]-1H,2H,3H,4H-thieno[2,3-d]pyrimidin-3-yl]propanoic acid] |
| < 5 µM | CCOC(=O)c1sc2c(c1C)c(=O)n([C@@H](C)C(=O)O)c(=O)n2CCc1ccccc1 [I-80, (2S)-2-[6-(ethoxycarbonyl)-5-methyl-2,4-dioxo-1-(2-phenylethyl)-1H,2H,3H,4H-thieno[2,3-d]pyrimidin-3-yl]propanoic acid] |
| > 50 µM | CCOC(=O)c1sc2c(c1C)c(=O)n(CCO)c(=O)n2CCc1nc2ccccc2s1 [I-44] |
| 20 to 50 µM | Cc1c(-n2cncn2)sc2c1c(=O)n(C(C)(C)C(=O)O)c(=O)n2C[C@H](OC(C)C)c1ccccc1 [I-157, 2-methyl-2-[5-methyl-2,4-dioxo-1-[(2R)-2-phenyl-2-(propan-2-yloxy)ethyl]-6-(1H-1,2,4-triazol-1-yl)-1H,2H,3H,4H-thieno[2,3-d]pyrimidin-3-yl]propanoic acid] |
| 5 to 20 µM | CCOC(=O)c1sc2c(c1C)c(=O)n(CC#N)c(=O)n2CCc1ccccc1 [I-43] |
| 5 to 20 µM | Cc1c(-c2ncco2)sc2c1c(=O)n(C(C)(C)C(=O)O)c(=O)n2C[C@@H](Oc1ccc(F)cc1)c1ccccc1 [I-150, (S)-2-(1-(2-(4-fluorophenoxy)-2-phenylethyl)-5-methyl-6-(oxazol-2-yl)-2,4-dioxo-1,2-dihydrotheno[2,3-d]pyrimidin-3(4H)-yl)-2-methylpropanoic acid] |
| > 50 µM | Cc1c(C(N)=O)sc2c1c(=O)n(CCO)c(=O)n2CCc1ccccc1 [I-47] |
| < 5 µM | CCOC(=O)c1sc2c(c1C)c(=O)n(CC(=O)O)c(=O)n2CC(OC(C)=O)c1ccccc1 (centres unmarked) [I-85, 2-[1-[2-(acetyloxy)-2-phenylethyl]-6-(ethoxycarbonyl)-5-methyl-2,4-dioxo-1H,2H,3H,4H-thieno[2,3-d]pyrimidin-3-yl]acetic acid] |
| 20 to 50 µM | Cc1c(-c2ncco2)sc2c1c(=O)n(C(C)(C)C(=O)O)c(=O)n2C[C@H](OC1COC1)c1ccccc1 [I-182, 2-methyl-2-[5-methyl-6-(1,3-oxazol-2-yl)-1-[(2R)-2-(oxetan-3-yloxy)-2-phenylethyl]-2,4-dioxo-1H,2H,3H,4H-thieno[2,3-d]pyrimidin-3-yl]propanoic acid] |
| < 5 µM | Cc1c(-c2ncco2)sc2c1c(=O)n(C(C)(C)C(=O)O)c(=O)n2C[C@H](OC(=O)N1CCOCC1)c1ccccc1 [I-231, 2-methyl-2-[5-methyl-1-[(2R)-2-[(morpholin-4-yl)carbonyloxy]-2-phenylethyl]-6-(1,3-oxazol-2-yl)-2,4-dioxo-1H,2H,3H,4H-thieno[2,3-d]pyrimidin-3-yl]propanoic acid] |
| < 5 µM | Cc1c(-c2ncco2)sc2c1c(=O)n(C(C)(C)C(=O)O)c(=O)n2CCOC1CCOCC1 [I-233, 2-methyl-2-[5-methyl-1-[2-(oxan-4-yloxy)ethyl]-6-(1,3-oxazol-2-yl)-2,4-dioxo-1H,2H,3H,4H-thieno[2,3-d]pyrimidin-3-yl]propanoic acid] |
| < 5 µM | COc1ccccc1[C@H](Cn1c(=O)n(C(C)(C)C(=O)O)c(=O)c2c(C)c(-c3ncco3)sc21)OC1COC1 [I-261, (R)-2-(1-(2-(2-methoxyphenyl)-2-(oxetan-3-yloxy)ethyl)-5-methyl-6-(oxazol-2-yl)-2,4-dioxo-1,2-dihydrothieno[2,3-d]pyrimidin-3(4H)-yl)-2-methylpropanoic acid] |
| > 50 µM | CCOC(=O)c1sc2c(c1C)c(=O)n(CC(=O)O)c(=O)n2Cc1cc2ccccc2[nH]1 [I-88, 2-[6-(ethoxycarbonyl)-1-(1H-indol-2-ylmethyl)-5-methyl-2,4-dioxo-1H,2H,3H,4H-thieno[2,3-d]pyrimidin-3-yl]acetic acid] |
| 20 to 50 µM | CCOC(=O)c1sc2c(c1C)c(=O)n(CCO)c(=O)n2CCc1ccccc1F [I-23, ethyl 1-[2-(2-fluorophenyl)ethyl]-3-(2-hydroxyethyl)-5-methyl-2,4-dioxo-1H,2H,3H,4H-thieno[2,3-d]pyrimidine-6-carboxylate] |
| > 50 µM | CCOC(=O)c1sc2c(c1C)c(=O)n(CCO)c(=O)n2CCCc1ccccc1 [I-12] |
| < 5 µM | CCOC(=O)c1sc2c(c1C)c(=O)n(C(C)C(N)=O)c(=O)n2CCc1ccccc1 (centres unmarked) [I-69, ethyl 3-(1-carbamoylethyl)-5-methyl-2,4-dioxo-1-(2-phenylethyl)-1H,2H,3H,4H-thieno[2,3-d]pyrimidine-6-carboxylate] |
| 20 to 50 µM | CCOC(=O)c1sc2c(c1C)c(=O)n(C(C)(C)C(=O)O)c(=O)n2CCc1ccc(I)cc1 [I-95, 2-[6-(ethoxycarbonyl)-1-[2-(4-iodophenyl)ethyl]-5-methyl-2,4-dioxo-1H,2H,3H,4H-thieno[2,3-d]pyrimidin-3-yl]-2-methylpropanoic acid] |
| 5 to 20 µM | CCOC(=O)c1sc2c(c1C)c(=O)n(CC(=O)NCCO)c(=O)n2CCc1ccccc1 [I-48, ethyl 3-[[(2-hydroxyethyl)carbamoyl]methyl]-5-methyl-2,4-dioxo-1-(2-phenylethyl)-1H,2H,3H,4H-thieno[2,3-d]pyrimidine-6-carboxylate] |
| 5 to 20 µM | CCOC(=O)c1cc2c(=O)n(CC(=O)O)c(=O)n(CCc3ccccc3)c2s1 [I-91, 2-[6-(ethoxycarbonyl)-2,4-dioxo-1-(2-phenylethyl)-1H,2H,3H,4H-thieno[2,3-d]pyrimidin-3-yl]acetic acid] |
| 5 to 20 µM | CCOC(=O)c1sc2c(c1C)c(=O)n(CC(C)(C)O)c(=O)n2CCc1ccccc1 [I-79, ethyl 3-(2-hydroxy-2-methylpropyl)-5-methyl-2,4-dioxo-1-(2-phenylethyl)-1H,2H,3H,4H-thieno[2,3-d]pyrimidine-6-carboxylate] |
